Results taken from the NIST ThermoML archive (doi:10.1016/j.fluid.2017.02.012).

Conditions: Liquid, Pendant drop shape

CCCCCCCCCCCCCCCCC [heptadecane] + O=C=O
Conditions	interfacial tension [mN/m]
313.15 K, 390 kPa	25.11
313.15 K, 1300 kPa	22.73
313.15 K, 2350 kPa	20.26
313.15 K, 3500 kPa	17.14
313.15 K, 5000 kPa	13.27
313.15 K, 6500 kPa	9.3
313.15 K, 8000 kPa	5.34
313.15 K, 9000 kPa	2.7
333.15 K, 750 kPa	22.56
333.15 K, 1860 kPa	20.55
333.15 K, 2830 kPa	18.33
333.15 K, 3810 kPa	16.6
333.15 K, 4850 kPa	14.57
333.15 K, 5930 kPa	12.56
333.15 K, 7090 kPa	10.2
333.15 K, 8280 kPa	8.07
333.15 K, 9630 kPa	5.7
333.15 K, 10600 kPa	4.26
353.15 K, 940 kPa	19.98
353.15 K, 1910 kPa	18.81
353.15 K, 3030 kPa	17.6
353.15 K, 4000 kPa	16.02
353.15 K, 5220 kPa	14.29
353.15 K, 6110 kPa	12.99
353.15 K, 7210 kPa	11.23
353.15 K, 8580 kPa	9.36
353.15 K, 9500 kPa	8.34
353.15 K, 10740 kPa	6.77
353.15 K, 12020 kPa	5.27
353.15 K, 13180 kPa	4.15
373.15 K, 920 kPa	19.2
373.15 K, 2390 kPa	17.81
373.15 K, 4000 kPa	15.65
373.15 K, 5490 kPa	13.83
373.15 K, 7260 kPa	11.8
373.15 K, 9000 kPa	9.93
373.15 K, 10800 kPa	8.1
373.15 K, 12560 kPa	6.21
373.15 K, 13470 kPa	5.47
373.15 K, 14640 kPa	4.43
393.15 K, 1190 kPa	18.38
393.15 K, 4320 kPa	14.69
393.15 K, 6780 kPa	12.43
393.15 K, 10600 kPa	8.46
393.15 K, 13920 kPa	5.87

CCCCCCCCC [nonane] + O=C=O
Conditions	interfacial tension [mN/m]
313.15 K, 500 kPa	20.26
313.15 K, 1490 kPa	17.76
313.15 K, 2460 kPa	15.19
313.15 K, 3500 kPa	12.77
313.15 K, 4500 kPa	10.11
313.15 K, 5490 kPa	7.35
313.15 K, 6620 kPa	4.28
313.15 K, 7290 kPa	2.5
333.15 K, 390 kPa	18.9
333.15 K, 1440 kPa	16.61
333.15 K, 2400 kPa	14.76
333.15 K, 3320 kPa	12.98
333.15 K, 4460 kPa	11.05
333.15 K, 5400 kPa	9.01
333.15 K, 6220 kPa	7.55
333.15 K, 7290 kPa	5.61
333.15 K, 8230 kPa	3.83
353.15 K, 1080 kPa	16.12
353.15 K, 2100 kPa	14.28
353.15 K, 3090 kPa	12.81
353.15 K, 4130 kPa	11
353.15 K, 5130 kPa	9.64
353.15 K, 6030 kPa	8.29
353.15 K, 6990 kPa	6.95
353.15 K, 8000 kPa	5.67
353.15 K, 9400 kPa	3.85
373.15 K, 1060 kPa	14.6
373.15 K, 2110 kPa	13.15
373.15 K, 3060 kPa	11.85
373.15 K, 4190 kPa	10.43
373.15 K, 5200 kPa	9.22
373.15 K, 6210 kPa	7.93
373.15 K, 7000 kPa	7.04
373.15 K, 7990 kPa	6.08
373.15 K, 9340 kPa	4.61
373.15 K, 10460 kPa	3.58
393.15 K, 940 kPa	13.32
393.15 K, 3080 kPa	10.78
393.15 K, 5700 kPa	8.17
393.15 K, 9300 kPa	4.7
393.15 K, 11410 kPa	2.98
